Assay [1] has as its system catagenic papilla cells (PGE2 production). As to the kind of experiment: Inhibition of IL-1α-induced production of PGE2 by catagenic papilla cells cultured in vitro. The class given is cell-based. The following applies: 10 μM tripeptide; for PGE2: IL-1α 10 ng/ml for 20 hours, control 9.2, IL-1α alone 100.2; for % inhibition: PGE2 production induced by IL-1α 10 ng/ml. The method, then: Measurement of the inhibition of the production of PGE2 by catagenic papilla cells cultured in vitro.
The cells (1,000 per well), at the 24th passage, were incubated in 199 medium marketed by Gibco in the presence of 1% foetal calf serum and of antibiotics. 20 hours later, the medium was replaced by an identical medium, but containing the tripeptides to be evaluated at a final concentration of 10 μM. 5 hours later, interleukin-1α was added at a final concentration of 10 ng/ml. 20 hours later, the PGE2 levels produced by the cultured papilla cells were evaluated by means of a Biotrack kit marketed by Amersham, the manufacturer's instructions being followed. This method thus made it possible to evaluate the inhibiting effect of these tripeptides on the production of PGE2 induced by a proinflammatory cytokine: interleukin-1α.

Another assay relates to interleukin-1α. In words: Production of interleukin-1α in the supernatant of plucked hairs from a patient with inflammatory alopecia (ELISA). The class given is cell-based, human. Particulars: 20 hours; for % of inhibition: IL-1α in supernatant of plucked hairs; for IL-1α: supernatant of plucked hairs, control 21.8 pg/ml. The method, then: Dose-response activity of the Ac-KPV-NH2* tripeptide with respect to the production of interleukin-1α in the supernatant of plucked hairs emanating from a patient afflicted with inflammatory alopecia.
Plucked hairs were removed from the region of the vertex of a volunteer suffering from inflammatory alopecia. They were placed in a Williams' survival medium E (marketed by Gibco BRL) containing penicillin G (100 units/ml), streptomycin S (100 μg/ml) and amphotericin (250 ng/ml), in the presence or in the absence (control) of the Ac-KPV-NH2* tripeptide, synthesized to order by Neosystem S. A. (Strasbourg), at the doses indicated. After incubating for 20 hours, the culture supernatants were collected in a tube and then centrifuged for 5 minutes at 14,000 revolutions/minute (Eppendorff centrifuge, model 5415C). The supernatants were then collected in a clean tube and placed at 4° C.
The interleukin-1α concentration was then evaluated with respect to 100 μl of supernatant by means of a Biotrak ELISA kit marketed by Amersham, according to the manufacturer's instructions.

The test system of another assay is mRNA of IL-1α. As to the kind of experiment: Expression of IL-1α messenger RNA in plucked hairs (RT-PCR, relative to GAPDH), 3 h 30 min. The following applies: treated batch, band intensity divided by GAPDH, control batch 100%. It counts as cell-based, human. Here is the method: (§1) Inhibition of the expression of the messenger RNAs of proinflammatory and inflammatory cytokines in response to the Ac-KPV-NH2* tripeptide.
(§2) Ten plucked hairs were removed from the region of the vertex of a volunteer suffering from inflammatory alopecia. These were placed in a Williams' survival medium E (marketed by Gibco BRL) containing penicillin G (100 units/ml), streptomycin S (100 μg/ml) and amphotericin (250 ng/ml), in the presence (treated batch) or in the absence (control) of the Ac-KPV-NH2* tripeptide, synthesized to order by Neosystem S. A., (Strasbourg).
(§3) After incubating for 3 h, 30 min, the messenger RNAs corresponding to these two batches of hair were purified from a “quick prep mRNA purification kit” marketed by Pharmacia. DNAs complementary to these mRNAs were then prepared by means of a reverse transcription kit marketed by Pharmacia, the manufacturer's instructions being followed, and then subjected to a polymerization chain reaction (PCR) stage by using primers specific for the mRNAs of glyceraldehyde-3-phosphate dehydrogenase (GAPDH), of IL-1α, of the type-1 IL-1 receptor and of the type-2 IL-1 receptor. The amounts of amplified DNA were then evaluated by electrophoresis on 1.5% agarose gel in the presence of ethidium bromide. […]

Assay [2] concerns mRNA of the type-1 IL-1 receptor (IL-1R1). In words: Expression of type-1 IL-1 receptor messenger RNA in plucked hairs (RT-PCR, relative to GAPDH), 3 h 30 min. The class given is cell-based, human. Particulars: treated batch, band intensity divided by GAPDH, control batch 100%. The method, then:
as §1, §2, §3

The test system of a further assay is mRNAs of IL-1α. In words: Expression of the mRNAs of IL-1α calculated from the IL-1α/GAPDH ratio, plucked hairs of two donors, 20 hours. The class given is cell-based, human. Here is the method:
Inhibiting effect of Ac-KPV-NH2* on the expression of the mRNAs of IL-1α, calculated from the IL-1α/GAPDH ratio.
5 hairs were plucked from two different donors and were then incubated for 20 hours at 37° C. (5% CO2) in Williams' medium E supplemented with antibiotics and with glutamine and in the presence of Ac-KPV-NH2* at the concentrations indicated. A control was carried out in which there was no peptide added.

The text below walks through data of patent US20080038208A1, “Pharmaceutical/cosmetic compositions comprising the lysine-d-proline-valine tripeptide” (SOCIETE L'OREAL S.A., priority 1995, published 2008).

As a reminder, the % inhibition is the drop in the measured response relative to a control, in per cent. A lower % inhibition goes with a weak effect.

Consider “Acetyl-(L)Lys-(L)Pro-(L)Val-NH2 [Ac—K—P—V—NH2**, reference compound]”, for which, in assay [1], the PGE2 is 10.0 pg/mL and the “% inhibition” value was 90%.

As to “Acetyl-(D)Lys-(D)Pro-(D)Val-NH2 [Ac—KPV—NH2*]”, the “% of inhibition” value in the assay on interleukin-1α (1 μM) is given as 49%; with interleukin-1α (10 μM), 72%. For the same substance, the IL-1α with interleukin-1α (1 μM) came to 11.1 pg/mL; in the assay on interleukin-1α (10 μM), 6.1 pg/mL. In the assay on mRNA of IL-1α, the “% of expression IL-1α” value is on record as 0%. In addition, the “% of expression IL-1R1” value in assay [2] worked out at 26%. Moreover, the “expression of the mRNAs of IL-1α (IL-1α/GAPDH ratio), % of the control” value in the assay with mRNAs of IL-1α (donor A, 1 μM) is 51%; in the assay with mRNAs of IL-1α (donor A, 10 μM), 28%; in the assay on mRNAs of IL-1α (donor B, 0.1 μM) it was 53%; in the assay on mRNAs of IL-1α (donor B, 1 μM), 62%; in the assay with mRNAs of IL-1α (donor B, 10 μM), 28.7%. Moreover, in assay [1], the PGE2 worked out at 28.0 pg/mL. The “% inhibition” value in assay [1] came out at 78%.

As to “Acetyl-(L)Lys-(D)Pro-(L)Val-NH2 [Ac—K—(D)P—V—NH2***]”, in assay [1], the PGE2 came to 24.6 pg/mL and the “% inhibition” value worked out at 75%.
